Assay [1] deals with Porphyromonas gingivalis. Description: Determination of minimal inhibitory concentration (MIC), broth microplate, absorbance at 600 nm. It is filed as cell-based. The note with it: BCRC14417, P. gingivalis BCRC 14417, 24 hours anaerobic, 37° C., concentration at absorbance ≦0.5 at 600 nm. As to the method: Porphyromonas gingivalis was purchased from Food Industry Research and Development Institute ([…], Taiwan) with the accession number BCRC 14417. After thawing from frozen tube, Porphyromonas gingivalis was activated in the supplemented brain heart infusion broth, and cultured at 37° C. anaerobic condition (80% N2, 10% H2, 10% CO2) for 24 hours to 48 hours. […] Chlorhexidine was used as positive control. The 2.5% (v/v) dimethyl sulfoxide was used as normal control.

Assay [2] relates to Porphyromonas gingivalis. Description: Determination of minimal bactericidal concentration (MBC), plating on sBHI agar with 5% defibrinated sheep blood. It is filed as cell-based. As to the method: Porphyromonas gingivalis was purchased from Food Industry Research and Development Institute ([…], Taiwan) with the accession number BCRC 14417. After thawing from frozen tube, Porphyromonas gingivalis was activated in the supplemented brain heart infusion broth, and cultured at 37° C. anaerobic condition (80% N2, 10% H2, 10% CO2) for 24 hours to 48 hours. […] Chlorhexidine was used as positive control. […]. After Porphyromonas gingivalis with said solution of Antrodia camphorata 95% ethanol extract or chlorhexidine were cultured at 37° C. under anaerobic condition (80% N2, 10% H2, 10% CO2) for 48 hours, 10 μl aliquot […] was added to supplemented brain heart infusion agar with 5% defibrinated sheep blood. Then, broth was gently coated uniformly onto supplemented brain heart infusion agar with 5% defibrinated sheep blood by a triangular sterilized glass rod and cultured at 37° C. anaerobic condition (80% N2, 10% H2, 10% CO2) for 5 days. […] ([…] Castro et al., 2009, Bioorganic & Medicinal Chemistry, 17:5332-5335)

Structures are written as SMILES.

`[H]/N=C(\N/C(=N/[H])NCCCCCCNC(=N)NC(=N)Nc1ccc(Cl)cc1)Nc1ccc(Cl)cc1` [Chlorhexidine, Chlorhexidine digluconate] yielded an MIC in assay [1] of 4 µg/mL. This molecule had an MBC in assay [2] (Porphyromonas gingivalis, BCRC14417) of 4 µg/mL. Besides, the “colony growth on supplemented brain heart infusion agar with 5% defibrinated sheep blood” value in assay [2] (concentration above 4 μg/ml, FIG. 3) is on record as “no colony growing”.

As usually defined, the MIC is the least concentration at which growth counts as inhibited. Lower therefore signals inhibition by little substance. Usually MBC stands for the smallest concentration meeting the test's criterion for killing. A higher MBC goes with less potent killing.

These data come from patent US9480722B2, “Method of alleviating or treating periodontal disease” (priority 2012, dated 2016).
